Data taken from patent US7511123B2, “Immuno-interactive fragments of the alpha-C subunit of inhibin” (Prince Henry's Institute of Medical Research, priority 1999, dated 2009).

Legend:
As #1989 = experiment: RIA (Assay 2): competition with iodinated inhibin for As #1989; assay type: binding, rabbit; settings: for As#1989 ED50: 50% fall in binding of iodinated inhibin
From the text: (§1) This assay was used to determine which peptides compete with iodinated 30 kDa inhibin for As #41, #128 and #1989 (used in the original inhibin RIA, Lapphorn et al., 1989, supra) in a RIA format. This assay identifies those peptides that bind to inhibin-binding antibodies in the antiserum and provides a stricter affinity and specificity assessment in identifying the appropriate epitopes than that found with Assay 1. The competition between peptide and hr-inhibin (used as the standard) was assessed from their ED50 values. The RIA consisted of the competition of iodinated inhibin and either hr-inhibin reference preparation, individual peptides or pools from the 4 peptide regions, with As #41, #128 and in some instances, As #1989. The peptides/inhibin/iodinated inhibin and antisera (at a prescribed dilution) were incubated overnight at 4° C. using standard methodologies. The antibody-bound iodinated inhibin was immunoprecipitated with the addition of an anti-sheep IgG serum raised in goats and the radioactivity was measured in a gamma counter. The concentration of peptide that gives a 50% fall in binding of iodinated inhibin (ED50) was determined and this value was used to give a measure of the affinity of the peptide for the antiserum. This methodology consisted of determining the ED50 of the peptide in the RIA using iodinated human recombinant inhibin as tracer with either As #41, As #128 or As #1989 and graded doses of either hr-inhibin or peptide as described in Example 2.

PO-12 [1] = experiment: RIA of Set 2 peptides with PO-12; assay type: binding, mouse; design: key: ΦΦΦ strong effect; +, Φ weak effect; a) limited binding; settings: Set 2 biotinylated peptides 0.8 and 0.08 micromoles/L
Method: (§2) The binding of the 41 biotinylated peptides as set forth in Table 7 (peptide set 2) to the mouse monoclonal antibodies (PO# series) was assessed as follows: b) Assay 2 (radioimrnunoassay, RIA) using iodinated human inhibin A as tracer. Mabs (at an appropriate dilution, see above) were incubated with iodinated human recombinant inhibin in the presence of biotinylated peptides (0.8 and 0.08 micromoles/L final concentration) overnight at room temperature.

As #128 [2] = experiment: RIA (Assay 2): competition with iodinated inhibin for As #128; assay type: binding, sheep; settings: for As#128 ED50: biotinylated peptides, 50% fall in binding of iodinated inhibin
From the text: as §1

PO-14 [3] = experiment: Solid phase binding of Set 2 peptides to PO-14; design: species or system mouse; key: +++; ΦΦΦ strong effect; +, Φ weak effect; settings: Set 2 biotinylated peptides 24 micromoles/L
Method: (§3) The binding of the 41 biotinylated peptides as set forth in Table 7 (peptide set 2) to the mouse monoclonal antibodies (PO# series) was assessed as follows:
(§4) a) Assay 1 (solid phase assay). The assay was undertaken as outlined in assay 1 of Example 2. Biotinylated peptides (24 micromoles/L) were initially bound to streptavidin-coated plates. Mab (at an appropriate dilution to give a detectable response, 1:1000, 1:10000 dilution of the culture medium) was then added and incubated for 1.5 hr. The amount of bound Mab was determined using horseradish peroxidase-bound anti-mouse IgG serum and enzyme activity detected at 450-630 nm using an ELISA plate reader.

As #41 [4] = experiment: RIA (Assay 2): competition with iodinated inhibin for As #41; assay type: binding, sheep; settings: for As#41 ED50: biotinylated peptides, 50% fall in binding of iodinated inhibin
From the text: as §1

PO-14 [5] = experiment: RIA of Set 2 peptides with PO-14; assay type: binding, mouse; settings: Set 2 biotinylated peptides 0.8 and 0.08 micromoles/L
Method: as §2

PO-12 [6] = experiment: Solid phase binding of Set 2 peptides to PO-12; design: species or system mouse; key: +++; ΦΦΦ strong effect; +, Φ weak effect; settings: Set 2 biotinylated peptides 24 micromoles/L
Method: as §3, §4

PO-14 [7] = experiment: RIA of Set 2 peptides with PO-14; assay type: binding, mouse; design: key: ΦΦΦ strong effect; +, Φ weak effect; a) limited binding; settings: Set 2 biotinylated peptides 0.8 and 0.08 micromoles/L
Method: as §2

As#128 and/or As#41 = experiment: Inhibin IFMA with pre-immunoabsorption of antisera by peptides; assay type: binding, sheep; settings: As#41 label pre-absorbed with peptide; As#128 coating antibody: buffer
From the text: This IFMA is used in the measurement of inhibin in serum from women with ovarian cancer and is presented at this juncture as a reference to the following procedures. The IFMA is a sandwich antibody assay in 96-well microtiter plates. The capture antiserum is As #128 and the labeled antiserum As #41, both raised in sheep to the alpha subunit of human inhibin. Sheep As #128 was also boosted with human recombinant 30-kDa inhibin. The microtiter plates were coated with a caprylic acid IgG cut of antiserum #128. Inhibin standard and serum samples were added and incubated for 2 hours at room temperature. A biotinylated antiserum (As #41) which has been immunopurified by absorption to a column of bovine (alpha)C subunit fusion protein (as previously described, Robertson et al., 1997, supra) followed by elution with a glycine (pH 2.5) buffer, was added to bind to the antibody-bound inhibin (2-hour incubation at room temperature). Fluorescently (Eu) labeled-streptavidin that has a high affinity for biotin is added (30 minutes at room temperature) and the Eu-bound streptavidin is counted in a time-resolved fluorimeter. The Eu measured is proportional to the inhibin bound by the two antisera.
As another approach, the competition of combinations of peptides at a maximum saturating dose was assessed in the IFMA (FIGS. 7-9). […] This suppression in binding provides a measure of the contribution of that particular epitope to the assay.

As #41 [8] = experiment: Competitive 2-site assay (Assay 3), approach (b); assay type: binding, sheep; design: key to #41 2-site competitive assay Assay 3: +++++ major contribution; + minor contribution
From the text: This assay was developed to establish the relative importance of the individual peptides and peptide pools (identified as epitopes in Assays 1 and 2) in the sandwich antibody format used in the IFMA with As #128 as capture antibody and As #41 as detection antibody. Two approaches (a and b) were considered, Approach (a) explores the cross-reaction of peptides with inhibin for the immobilized As #128 while Approach (b) assesses their cross-reaction with inhibin for As #41.
Approach (b). In this approach, the competition of peptides with the As #41 antiserum using the sandwich antibody format was assessed. Hr-Inhibin was initially incubated with the As #128 coated wells for 1 hour at room temperature. The biotinylated peptide pools and/or individual peptides were incubated together with iodinated As #41 for 1 hour and then added to the inhibin bound As #128 coated plates and incubated for 2 hours at room temperature. Plates were then washed to remove any unbound material and the resulting activity was measured in the gamma counter.

As #41 [9] = experiment: Two-site assay design variation: biotinylated #41 pre-incubated with peptide; assay type: binding, sheep; settings: non-biotinylated peptides 0.1-1.0 micromolar
Method: (iv) In a variation to the above design, biotinylated #41 was pre-incubated with peptide (0.1-1.0 micromolar) for 1.5 hours at room temperature and then added to the As #128 coated plate pre-bound with inhibin as for (i)-(iii). […] Combination of peptide #5 and #30 led to 74% decrease.

As #128 [10] = experiment: Two-site assay design: peptides pre-incubated with As #128 coated plate; assay type: binding, sheep; settings: non-biotinylated peptides 0.1-1 micromolar
Method: On the other hand, the IFMA design is based on the total amount of inhibin bound which is a combination of both antibody affinity and concentration. In order to establish to what extent epitopes to these peptides contribute to the overall IFMA, the following two-site assay designs were used.
(i) Peptides #5, #20 and #30 (0, 0.1-1 micromolar) were incubated with the As #128 coated plate for 1.5 hours at RT and the wells washed. The highest dose of peptide used was saturating.
(ii) Hr-Inhibin was then added as a saturating or near saturating dose to the As #128 coated plate and incubated for 2 hours at room temperature and the plate washed.
(iii) Biotinylated As #41 was added to the above wells and incubated for 2 hours at RT. Plates were then washed and counted.

As #41 [11] = experiment: Solid phase assay (Assay 1): biotinylated peptides binding to As #41; design: species or system sheep; key: +++++ major contribution; + minor contribution; settings: relative contribution
Method: This assay is a broad screen of the binding of the 31 biotinylated peptides to As #41 and #128 as recommended by Chiron Mimotopes.
The biotinylated peptides were initially bound to streptavidin-coated 96-well plates (2 hours at room temperature), antiserum #41 or #128 was then added (2 hours room temperature) to bind to the peptides. Detection of antiserum binding was assessed by a further incubation with an anti-ovine IgG serum labeled with the enzyme, horseradish peroxidase. The enzyme activity was assessed by conversion of a colorless substrate to a colored product that is detected in a spectrophotometer. The enzyme activity measured was proportional to the extent of the binding of the peptides.

[12] = non-biotinylated peptides, hr-inhibin A as standard

Row | Substance | PO-14 SPB (PO-14 [3]) | PO-12 SPB (PO-12 [6]) | blocking of As #41 binding to the inhibin-As#128 complex (As #41 [8]; biotinylated peptide pools or peptides incubated with iodinated As #41) | suppression in binding with As #128 (As #128 [10]) | #41 Antibody screen Assay 1 (As #41 [11]) | As#1989 ED50 (As #1989; biotinylated peptides) | PO-12 RIA (PO-12 [1]) | As#128 ED50 (As #128 [2]) | As#41 ED50 (As #41 [4]) | PO-14 RIA (PO-14 [5]) | PO-14 RIA (PO-14 [7]) | ED50 with As #1989 (As #1989; biotinylated peptides) | affinity to rabbit antiserum #1989 (As #1989; in words) | ED50 values As#1989 (As #1989; [12]) | % suppression at 2ng inhibin (As#128 and/or As#41) | ED50 values As#128 (As #128 [2]; [12]) | ED50 values As#41 (As #41 [4]; [12]) | inhibition with biotinylated #41 pre-incubated with peptide (As #41 [9]) | #41 2-site competitive assay Assay 3 (As #41 [8]; relative contribution)
1 | SGSG TPAQPYSLLPGAQP [Peptide 23] | +++ | +++ | – | – | – | >2500 nM | ΦΦΦ | 500 nM | 6200 nM | ΦΦ | – | – | – | – | – | – | – | – | –
2 | SGSG LPGAQPCCAALPGT [Peptide 25] | +++ | +++ | – | – | – | >2500 nM | ΦΦΦ | 2000 nM | 5000 nM | – | ΦΦΦ | – | – | – | – | – | – | – | –
3 | SGSG QPCCAALPGTMRPL [Peptide 26] | +++ | +++ | – | – | – | >2500 nM | ΦΦΦ | 625 nM | 1000 nM | – | ΦΦΦ | – | – | – | – | – | – | – | –
4 | SGSG ETVPNLLTQHCACI [Peptide 33] | – | – | – | – | – | >2500 nM | – | 2500 nM | 4000 nM | – | – | – | – | – | – | – | – | – | +

More lines, main results first:

Row | PO-14 SPB (PO-14 [3]) | PO-12 SPB (PO-12 [6]) | blocking of As #41 binding to the inhibin-As#128 complex (As #41 [8]; biotinylated peptide pools or peptides incubated with iodinated As #41) | suppression in binding with As #128 (As #128 [10]) | #41 Antibody screen Assay 1 (As #41 [11]) | Substance | As#1989 ED50 (As #1989; biotinylated peptides) | PO-12 RIA (PO-12 [1]) | As#128 ED50 (As #128 [2]) | As#41 ED50 (As #41 [4]) | PO-14 RIA (PO-14 [5]) | PO-14 RIA (PO-14 [7]) | ED50 with As #1989 (As #1989; biotinylated peptides) | affinity to rabbit antiserum #1989 (As #1989; in words) | ED50 values As#1989 (As #1989; [12]) | % suppression at 2ng inhibin (As#128 and/or As#41) | ED50 values As#128 (As #128 [2]; [12]) | ED50 values As#41 (As #41 [4]; [12]) | inhibition with biotinylated #41 pre-incubated with peptide (As #41 [9]) | #41 2-site competitive assay Assay 3 (As #41 [8]; relative contribution)
5 | – | – | 50% | no suppression at all | – | SGSG RTTSDGGYSFKYET [Peptide 30] | <10 nM | – | 600 nM | 2500 nM | – | – | < 10 nM | high affinity | 2500 nM | 28% | >5000 nM | >5000 nM | 25-30% | –
6 | – | – | – | – | + | SGSG GTMRPLHVRTTSDG [Peptide 28] | >2500 nM | – | 625 nM | 4000 nM | – | – | – | – | – | – | – | – | – | –
